# Data taken from BindingDB's records for doi:10.1016/S0960-894X(97)10016-6 (1997).
# Target: T1, Progesterone receptor (Oryctolagus cuniculus, UniProt P06186)
# T1 sequence (P06186 whole entry): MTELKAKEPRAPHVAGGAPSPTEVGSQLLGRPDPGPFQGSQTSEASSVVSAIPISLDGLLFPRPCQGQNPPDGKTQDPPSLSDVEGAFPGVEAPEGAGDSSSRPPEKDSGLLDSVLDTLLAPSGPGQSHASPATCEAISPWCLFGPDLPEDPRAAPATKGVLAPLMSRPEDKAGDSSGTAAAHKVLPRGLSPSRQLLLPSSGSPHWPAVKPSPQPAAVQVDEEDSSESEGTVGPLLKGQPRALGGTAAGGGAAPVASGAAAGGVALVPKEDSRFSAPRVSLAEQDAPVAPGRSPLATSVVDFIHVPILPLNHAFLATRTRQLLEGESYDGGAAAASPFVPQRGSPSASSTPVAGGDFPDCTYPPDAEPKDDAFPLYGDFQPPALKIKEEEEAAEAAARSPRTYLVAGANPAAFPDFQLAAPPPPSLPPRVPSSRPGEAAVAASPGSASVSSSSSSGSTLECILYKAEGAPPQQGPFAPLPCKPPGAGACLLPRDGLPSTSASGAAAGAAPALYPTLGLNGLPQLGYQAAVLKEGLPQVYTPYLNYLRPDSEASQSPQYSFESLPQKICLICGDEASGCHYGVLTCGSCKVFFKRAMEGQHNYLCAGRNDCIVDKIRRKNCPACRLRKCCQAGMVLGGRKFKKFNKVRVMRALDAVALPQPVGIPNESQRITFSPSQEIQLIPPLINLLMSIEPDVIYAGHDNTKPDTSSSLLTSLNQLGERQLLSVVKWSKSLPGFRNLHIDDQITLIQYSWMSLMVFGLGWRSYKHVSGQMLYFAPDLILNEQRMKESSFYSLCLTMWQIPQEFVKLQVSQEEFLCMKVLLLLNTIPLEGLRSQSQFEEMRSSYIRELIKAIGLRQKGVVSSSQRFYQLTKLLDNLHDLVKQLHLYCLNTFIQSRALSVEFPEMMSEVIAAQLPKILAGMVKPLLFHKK
# Assay: ChEBML_159701
# Excerpt: Binding affinity determined by ability to displace [3H]R5020 radioligand using uterine progesterone receptor obtained from estrogen-primed rabbit
row,SMILES,IC50
1,O=C(NNCC1=NN(c2ccc(F)cc2)C2C(Cc3cccc4ccccc34)CCCC12)c1ccccc1 (configuration not stated),> 10 µM
2,O=S(=O)(NNCC1=NN(c2ccc(F)cc2)C2C(Cc3cccc4ccccc34)CCCC12)c1ccccc1 (configuration not stated) [1-(4-Fluoro-phenyl)-3-(N'-[(E)-methylene]benzenesulfonohydrazide)-7-naphthalen-1-ylmethyl-octahydro-indazole],> 10 µM
